This is an account of results in article PMC3849035 (MedChemComm, 2011).

Some results are limits rather than exact numbers.

For one data set, the system named is VZV (OKA & 07/1). Description: VZV plaque formation assay in HEL cells. Type of data set: cell-based, varicella-zoster virus. The note with it: Human alphaherpesvirus 3, HEL, 120 h.
The subject of another data set is Parainfluenza-3 virus. Description: Inhibition of virus-induced cytopathicity, parainfluenza-3 virus in Vero cells. Type of data set: cell-based. (Damage to the host cells serves as the signal in cytopathic effect assays.)
The next data set relates to Reovirus-1. The experiment in a line: Inhibition of virus-induced cytopathicity, Reovirus-1 in Vero cells. Type of data set: cell-based.
A further data set relates to HCMV and VZV. Description: organism not typed. The note with it: read-out: EC50's against HCMV and VZV. Type of data set: cell-based.
A further data set has as its system several tumor cell lines. Description: Cytotoxic activity against tumor cell lines. Type of data set: cell-based.
In the next data set the test system is HEL cells. Particulars: microscopically visible alteration of cell morphology.
The next data set has as its system HeLa cells. The note with it: microscopically visible alteration of cell morphology.
Another data set has as its system Vero cells. The note with it: microscopically visible alteration of cell morphology.
The test system of the next data set is MDCK cells. Particulars: microscopically visible alteration of cell morphology.
The next data set concerns HEL, HeLa, Vero, MDCK. The note with it: four different cell lines (HEL, HeLa, Vero, MDCK).
A further data set relates to VSV. Description: microbe, parasite or virus in culture. Type of data set: cell-based. The note with it: Vesicular stomatitis virus, HeLa.
A further data set has as its system RSV. The experiment in a line: Inhibition of virus-induced cytopathicity, RSV in HeLa cells. Type of data set: cell-based. Particulars: human respiratory syncytial virus.

The EC50 is the concentration that produces a half-maximal response. On to `O=c1[nH]c(=O)n(C2C=CC(O)C2)cc1-c1cccs1` (stereo not shown) [1a, 1-[4′-Hydroxy-2′-cyclopenten-1′-yl]-5-(thiophene-2-yl)-uracil], for which the EC50 with VZV (OKA & 07/1) was 1.6 to 1.7 µM; with Parainfluenza-3 virus, above 4 µM; in the data set on Reovirus-1, above 4 µM; in the data set on HCMV and VZV, 1.6 to 2 µM. In addition, the “cytotoxic activity against several tumor cell lines” value in the data set on several tumor cell lines was “significant cytotoxic activity”. For the same compound, the “MCC (minimal cytotoxic concentration)” value in the data set with HEL cells is reported as at least 4 µM; in the data set on HeLa cells it was 20 µM; in the data set with Vero cells, 20 µM; with MDCK cells, 4 µM. In addition, the global cytotoxicity in the data set with HEL, HeLa, Vero, MDCK was in the range of 4 to 20 µM.
In the data set with Parainfluenza-3 virus, `O=c1[nH]c(=O)n(C2C=CC(O)C2)cc1-c1ccco1` (stereo not shown) [1b, 1-[4′-Hydroxy-2′-cyclopenten-1′-yl]-5-(furan-2-yl)-uracil] gave a concentration giving a half-maximal response (EC50) above 100 µM. The “MCC (minimal cytotoxic concentration)” value with HEL cells, in the data set with HeLa cells and with Vero cells was above 100 µM each time.
For the compound `O=c1[nH]c(=O)n(C2C=CC(O)C2)cc1-c1cncs1` (stereo not shown) [1c, 1-[4′-Hydroxy-2′-cyclopenten-1′-yl]-5-(thiazol-5-yl)-uracil], the figures for the EC50 in the data set with VZV (OKA & 07/1), in the data set with Parainfluenza-3 virus and in the data set on Reovirus-1 were 47 to 56 µM, above 100 µM and above 100 µM, respectively. Besides, the “MCC (minimal cytotoxic concentration)” value was at least 100 µM in the data set with HEL cells, above 100 µM with HeLa cells, above 100 µM with Vero cells and 100 µM in the data set with MDCK cells.
As for `NC(=O)c1ncn([C@@H]2O[C@H](CO)[C@@H](O)[C@H]2O)n1` [Ribavirin, reference compound], the half-maximal effective concentration (EC50) in the data set with VSV is 29 µM; in the data set with RSV it was 10 µM; in the data set on Parainfluenza-3 virus, 85 µM; with Reovirus-1 it was above 250 µM.
